One compound from patent US9539298B2, “Lissencephaly therapeutic agent” (OSAKA CITY UNIVERSITY, priority 2010, dated 2017) can be followed below.

Each structure is given as a SMILES string.

The test system of the experiment is LIS1 heterozygous mice (lissencephaly model mice). As to the kind of experiment: Behavior analysis: rotor rod test. It is filed as in vivo, mouse. The note with it: M2 and M3 groups, 200 μg/g per day oral. As to the method:
To conduct a behavior analysis experiment, wild-type mice and Lis1 (^+/−) heterozygous mice were divided into five groups (C group, M1 group, M2 group, M3 group, and M4 group). The details regarding the mice in each group are described below. CE-2 (CLEA Japan, Inc.) was used as mice feed. The wild-type mice and heterozygous mice used for this experiment were prepared in the same method as described in the above section “Preparation of LIS1 gene hetero-deficient mice (LIS1 heterozygous mice).”
M2 group: LIS1 heterozygous mice prepared as follows. SNJ-1945 was dissolved in dimethyl sulfoxide (Sigma, D-5879) at a concentration of 100 mg/ml, and administered to pregnant mice from Day 9.5 of the embryonic period (E9.5) in an amount of 200 μg per gram of maternal body weight per day. The administration was performed by adding SNJ-1945 to mice feed. […]
By adding SNJ-1945 to the mice feed (CE-2, CLEA Japan, Inc.), SNJ-1945 was continuously administered to the mice so that the administration amount became 200 μg per gram of body weight per day through oral administration. For a behavior analysis experiment, 12 to 16 mice were grouped to be subjected to preliminary breeding in the behavior experiment facility for 1 to 2 weeks; thereafter, the behavior of the mice was analyzed at an age of about 9 to 12 weeks. After the behavior analysis experiment, a gene type was determined for all mice. […]

On to `COCCOCCOC(=O)N[C@@H](CC(C)C)C(=O)N[C@@H](Cc1ccccc1)C(=O)C(=O)NC1CC1` [compound 17, ((1S)-1-((((1S)-1-Benzyl-2,3-dioxo-3-(cyclopropylamino)propyl)amino)carbonyl)-3-methylbutyl)carbamic acid 5-methoxy-3-oxapentyl ester], for which the “motor ability development curve (time on the rod over repeated tests)” value (FIG. 10) is “positioned between M1 group and C group”. Further, the “total time spent on the rod” value (FIG. 11) is listed as “increased to the extent that there was almost no significant difference from C group”.
